Test results reported in patent publication US11801246B2, “Methods of treating ischemic disease by administering an ATR kinase inhibitor” (East Tennessee State University Research Foundation, priority 2018, dated 2023).
“Also recorded” adds a separate entry of the source. Peptide text beside a SMILES is read from it. * marks the point of attachment. Cbz = O=C(OCc1ccccc1)*; CH2F = FC*

Columns and labels:
dividing SH-SY5Y cells = assay: DNA damage signaling and AIF activation; format: cell-based, human; details: up to 8 hr, compared to controls; data not shown
Text: A cell morphology-based assay was used to compare cells treated with ionomycin vs. the apoptosis-inducer camptothecin (CPT) (FIG. 4B, C). […] Importantly, cell death depended on NAD+ depletion and was calpain-independent; and ionomycin or glutamate induced little/no DNA damage signaling and AIF activation in dividing SH-SY5Y cells as compared to controls for up to 8 hr, although DNA damage did occur at 24 hr (data not shown).

[1] = test system: dividing ATR+/+ and ATRflox/- HCT116 cells; assay: morphologic analysis (phase-contrast microscopy) of form of cell death; format: cell-based, human
Text: (§1) FIG. 4 reports data supporting the finding that necrosis is the form of cell death induced by Ca^2+ overload in dividing cells. (A) ATR^+/+ and ATR^flox/− cells were pre-treated with apoptosis inhibitor Z-VAD-FMK and then with ionomycin for cytotoxicity assay. […] As a control, camptothecin (CPT), a DNA double-strand break and typical apoptosis inducer, caused characteristic cell shrinkage and apoptotic bodies. […] (E) A549 cells were transfected with control, ATR, or ATM siRNAs for 72 hrs, then treated with ionomycin for 4 hrs. Treated cells were either analyzed by Western blot or trypan blue staining for determination of cell death. (*, p≤0.01).
(§2) Cultured dividing ATR^+/+ and ATR^flox/− HCT116 cells were pre-treated with apoptosis inhibitor Z-VAD-FMK and then with ionomycin, followed by trypan blue cytotoxicity assay (FIG. 4A). […] As a control, CPT, a DNA double-strand break and typical apoptosis inducer, caused characteristic cell shrinkage and apoptotic bodies. […] FIG. 4E: Dividing A549 cells were transfected with control, ATR, or ATM siRNAs for 72 hrs, then treated with ionomycin for 4 hrs. Treated cells were either analyzed by Western blot or subjected to trypan blue staining for determination of cell death. (*, p≤0.01).

caspases = assay: Western blot of activated (cleaved) caspases; format: cell-based, human
Text: as §1, §2

[2] = test system: HCT116 and A549 cells and primary fibroblasts; assay: flow cytometric analysis of necrotic and apoptotic cells; format: cell-based, human; details: data not shown
PARP = assay: Western blot analysis of poly(ADP-ribose) (PAR) formation; format: cell-based, human; details: dividing A549 cells; ionomycin 10 uM
ATR binding to PARP1 = assay: ATR co-immunoprecipitation and Western blot for PARP1 binding; format: cell-based, human; details: dividing A549 cells; ionomycin-treated vs control
Procedure: (B) Dividing ATR^+/+ and ATR^flox/− cells were treated with ionomycin for the indicated periods. (C) Dividing A549 cells were treated with ionomycin, followed by subcellular fractionation and co-immunoprecipitation with ATR antibody and Western blot analysis for PARP1 binding.
Since PARP hyperactivation is known to be the major cause of necrosis by Ca^2+ overload, the effects of ATR on PARsylation in dividing cells was investigated. […] ATR+/+ and ATRflox/− cells were treated with ionomycin for the indicated periods. A549 cells were treated with ionomycin, followed by fractionation and ATR co-IP and Western blot analysis for PARP1 binding.

[3] = test system: Terminally differentiated non-dividing SH-SY5Y cells; assay: MTT cytotoxicity (cell viability) assay; format: cell-based, human; details: Z-VAD-FMK combined with VE-822; glutamate
Procedure: FIG. 3 depicts results of a cell viability assay (MTT) showing apoptosis is induced by Ca^2+ overload in terminally differentiated non-dividing SH-SY5Y cells but is reduced by ATR inhibition.
Standard MTT cytotoxicity assay was carried out on terminally differentiated non-dividing SH-SY5Y cells treated with combinations of VE-822, Z-VAD-FMK, and glutamate. Cell differentiation: SH-SY5Y were grown to 60-70% confluency. Complete media was then replaced with 1% serum DMEM supplemented with freshly made all-trans retinoic acid dissolved in DMSO to a final in dish concentration of […]. This media was changed every two days following the same composition until day ten. At day ten the media was replaced with 1% serum DMEM with no further supplementation. A washout period of two days was allowed before any experiments were performed.

[4] = test system: dividing ATR+/+ and ATRflox/- HCT116 cells; assay: trypan blue cytotoxicity assay with apoptosis inhibitor pretreatment; format: cell-based, human; details: pretreatment with Z-VAD-FMK, then ionomycin
Text: as §1, §2

[5] = test system: Dividing human neural SH-SY5Y cells; assay: LDH cytotoxicity assay, Ca2+ overload in dividing cells; format: cell-based; details: glutamate 100 uM, QA 1.0 mM or ionomycin 10 uM, VE-822 80 nM, 2 hrs
Procedure: (§3) (A) Dividing human neural SH-SY5Y cells cultured in Dulbecco's modified Eagle's medium (DMEM) supplemented with 10% fetal bovine serum were treated with glutamate (100 uM), quinolinic acid (QA, 1.0 mM) or ionomycin (10 uM) in the presence and absence of ATR inhibitor VE-822 (ATRi, 80 nM) for 2 hours before cell death was measured using LDH cytotoxicity assay (LDH toxicity kit, Promega) following the vendor's procedures. (B)-(C) human ATR^+/+ and ATR^flox/− HCT116 cells and primary fibroblasts transfected with ATR siRNAs for 48 hrs were treated with ionomycin (10 uM) for the indicated periods before cell death was measured using standard trypan blue cytotoxicity assay. […] (E) Terminally differentiated non-dividing SH-SY5Y cells were treated with glutamate (100 uM), QA (1.0 mM) and ionomycin (1.0 uM)±VE-822 before cell death was measured using cytotoxicity assay. […] (G) Live cells (rounded morphology-white arrowheads) were counted in 5 fields per well. […]
(§4) Dividing human neural SH-SY5Y cells were treated with glutamate (100 uM), quinolinic acid (QA) (1.0 mM) or ionomycin (10 uM)±ATR inhibitor VE-822 (ATRi) for 2 hrs before cell death was measured using LDH cytotoxicity assay. Human ATR^+/+ and ATR^flox/− HCT116 cells and primary fibroblasts±ATR siRNAs were treated with ionomycin (10 uM) for the indicated periods before cell death was measured using trypan blue cytotoxicity assay. […]

myoblastic cells H9C2 = assay: hypoxia/reperfusion assay; format: cell-based, human; details: dividing myoblastic H9C2 cells ± VE-822; hypoxia/reperfusion incubator
[6] = test system: Terminally differentiated non-dividing SH-SY5Y cells; assay: cytotoxicity assay, Ca2+ overload in non-dividing cells; format: cell-based, human; details: glutamate 100 uM, QA 1.0 mM, ionomycin 1.0 uM ± VE-822
Procedure: as §3, §4

Primary cortical neurons = assay: NMDA excitotoxicity, live cell count; format: cell-based, mouse; details: 1 h pretreatment, then 10 uM NMDA for 8 h; p≤0.01
C57BL/6 mice = assay: middle cerebral artery occlusion (MCAO) stroke model; format: in vivo, mouse
Procedure: Adult mice injected i.p. with vehicle (A) over 3 d after a 30 min unilateral MCAO had larger infarcts (identified by GFAP+ astrocyte borders and more leukocyte (CD45) infiltration) in the brain at 7 d, than with ATR inhibitor (ATRi) VE-822 (B). (C) Quantification of infarct size as % of the contralateral side. Data are mean+SEM. N=4, 6, *p<0.05. […] (E) The number of neurons identified by the area of NeuN staining in the infarct was increased by VE-822 treatment. (F) With vehicle the striatum was essentially devoid of neurons. (G) In VE-822 treated mice rescued neurons often appeared around blood vessels (identified by αSMA). (H) Grid walk analysis of VE-822-treated and mock-treated MCAO mice.
(A) VE-822-treated mice had fewer CD45+ infiltrating leukocytes in the infarct at 7 d after MCAO, as shown by area measurements. N=4, 6, **p<0.01. (B) Only in ATR inhibitor-treated mice, a sub-set of CD45+ cells were double-labeled with TUNEL (white arrows), which identifies DNA breaks in dying cells. (C) These cells included CD68+ microglia/macrophages as shown by split cells in an adjacent section (yellow arrows). Note the perivascular CD68+ cell at the wall of a blood vessel (BV, pink arrow). (D) Cleaved caspase-3 was present in CD45+ and CD68+ cells ([…] confocal slice). (E) The number of TUNEL+ nuclei in the cortex and striatum was higher with the ATR inhibitor treatment. (F) Some of the CD45 cells expressed ATR. (G) After MCAO, ATR expression was induced in PDGFRβ+ pericytes in the infarct. Yellow arrows indicate the cells shown by confocal on the right. Bottom confocal: ATR is seen in a CD13+ pericyte around a microvessel. […] Green arrows=healthy pericytes.
Adult male C57BL/6 mice (10-12 weeks old; JAX Stock 000664, Jackson Labs) were anesthetized with Avertin and received a unilateral middle cerebral artery occlusion (MCAO) for 30 min as described (Kang et al., Endogenous CNTF mediates stroke-induced adult CNS neurogenesis in mice, Neurobiology of Disease 49: 68-78 (2013)). Reduced cortical blood flow was confirmed by Laser-Doppler Flowmetry and body temperature maintained during and after the MCAO. Two hours afterwards, ATR inhibitor VE-822 was injected i.p., and again at 24 and 48 h. One day before and at 3 and 7 days after MCAO, the mice were tested for impaired forepaw use in a glass cylinder test while rearing and the number of placement errors during grid walking. At 7 d mice were processed for histology of the brain as described (Kang et al., 2012, and Kang, et al., 2013), using various antibodies for cellular markers. Infarct size was determined by the area of lost cells in GFAP- and NeuN (neurons)-stained sections. Inflammatory cells were detected and identified with various antibodies and their death documented using an apoptosis detection kit and by nuclear staining.

Question: How did the “DNA damage signaling and AIF activation” value (dividing SH-SY5Y cells) turn out when N[C@@H](CCC(=O)O)C(=O)O [glutamate] was run?
Answer: Its value is “little/no”.

Question: With C[C@H](CCC(=O)O)C[C@H](C)C[C@H](C)C(=O)/C=C(\O)[C@H](C)C[C@H](C)C/C=C/[C@@H](C)[C@@H](O)[C@@H](C)[C@@H](O)C[C@@H]1CC[C@@](C)([C@H]2CC[C@@](C)([C@@H](C)O)O2)O1 [ionomycin] as the compound, how does the “form of cell death by cell morphology” value [1] read?
Answer: Its value is “caused necrosis”.

Question: What about the “caspase activation (Western blot)” value (caspases) of the same compound?
Answer: The value was “absence of caspase activation”.

Question: And the “form of cell death by flow cytometry” value [2]?
Answer: The value was “necrotic cell death”.

Question: What about the “DNA damage signaling and AIF activation” value (dividing SH-SY5Y cells) of the same compound?
Answer: The value was “little/no”.

Question: What about the “PARP activity as formation of PAR polymers” value (PARP) of the same compound?
Answer: The value was “increased PARP activity”.

Question: What about the “ATR interaction with PARP1 (co-IP)” value (ATR binding to PARP1) of the same compound?
Answer: The value was “interacts with PARP1”.

Question: How did the “rescue from death (MTT), combination of apoptosis inhibitor and ATR inhibition” value [3] turn out when COC(=O)C[C@H](NC(=O)[C@H](C)NC(=O)[C@@H](NC(=O)OCc1ccccc1)C(C)C)C(=O)CF [Z-VAD-FMK] (Cbz-Val-Ala-Asp(OMe)-CH2F) was run?
Answer: Its value is “do not have additive effects”.

Question: And the “cell death (trypan blue)” value [4]?
Answer: Its value is “had no effect on cell death”.

Question: Which “cell death caused by cellular Ca2+ overload inducers” value [5] does the source give for CNCc1ccc(-c2cc(-c3nc(-c4ccc(S(=O)(=O)C(C)C)cc4)cnc3N)on2)cc1 [VE-822, 5-(4-(Isopropylsulfonyl)phenyl)-3-(3-(4-((methylamino)methyl)phenyl)isoxazol-5-yl)pyrazine-2-amine] here?
Answer: Its value is “dramatically increased cell death”.

Question: What about the cell death (myoblastic cells H9C2) of the same compound?
Answer: Its cell death is “Increased death”.

Question: What about the “cell death (rescue)” value [6] of the same compound?
Answer: The value was “rescued”.

Question: And the “live cells after NMDA excitotoxicity” value (Primary cortical neurons)?
Answer: The value was “rescued from NMDA excitotoxicity”.

Question: And the “pericyte morphology in the infarct” value (C57BL/6 mice; 7 d after MCAO, VTN-identified pericytes)?
Answer: Its value is “morphology consistent with necrosis”.

Question: What about the “number of TUNEL-positive cells in the injury site” value (C57BL/6 mice; 7 d after MCAO, cortex and striatum, vs vehicle) of the same compound?
Answer: The value was “increased”.

Question: And the “number of neurons in the injury site (NeuN area)” value (C57BL/6 mice; 7 d after MCAO, vs vehicle)?
Answer: The value was “increased; also recorded: greater”.

Question: What about the “CD45-positive leukocytes in the injury site” value (C57BL/6 mice; 7 d after MCAO, vs vehicle, p<0.01) of the same compound?
Answer: The value was “fewer”.

Question: And the infarct size (C57BL/6 mice; 7 days after 30 min MCAO, i.p. at 2, 24 and 48 h, vs vehicle, p<0.05)?
Answer: The infarct size was “smaller infarcts”.

Question: And the “neurological function, grid-walking” value (C57BL/6 mice; MCAO mice, i.p. at 2, 24 and 48 h, vs mock-treated)?
Answer: The value was “improved neurological function”.

Question: What about the “neurological function, affected paw use in cylinder test” value (C57BL/6 mice; MCAO mice, i.p. at 2, 24 and 48 h, vs vehicle) of the same compound?
Answer: Its value is “improved neurological function”.

Question: And the “neurological function, affected paw use in cylinder test” value (C57BL/6 mice; MCAO mice, i.p. at 2, 24 and 48 h, vs vehicle, listed as ATRi)?
Answer: Its value is “increased to the near normal forelimb use index level”.

Question: Which results are given for CC[C@@]1(O)C(=O)OCc2c1cc1n(c2=O)Cc2cc3ccccc3nc2-1 [CPT, camptothecin]?
Answer: form of cell death by cell morphology [1]: efficiently induced apoptosis; caspase activation (Western blot) (caspases): obvious
